Reference: PubChem BioAssay (NCI)
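Results reflect a 48-hour exposure of cells in 96-well plates to compound at five concentrations. GI50 = concentration required for 50% inhibition of growth. The concentration for full growth arrest is given as TGI.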

Experiments:
Experiment in all cases: DTP human tumour cell line panel, 48 h
[1] = test system: HS 578T breast
[2] = test system: DLD-1 colon
[3] = test system: DMS 114 small cell lung
[4] = test system: RXF 393 renal
[5] = test system: SNB-78 CNS
[6] = test system: DMS 273 small cell lung
[7] = test system: LXFL 529 NSCLC
[8] = test system: UACC-257 melanoma
[9] = test system: XF 498 CNS
[10] = test system: 786-0 renal
[11] = test system: LOX IMVI melanoma
[12] = test system: KM20L2 colon
[13] = test system: MDA-N
[14] = test system: IGROV1 ovarian
[15] = test system: M19-MEL melanoma

Q: c1nc(N2CC2)c2cnn(C3CCCCO3)c2n1 (stereo not drawn) was tested. Which TGI [1] did it give?
A: > 100 µM

Q: And the TGI [2]?
A: > 100 µM

Q: And the TGI [3]?
A: > 100 µM

Q: And the TGI [4]?
A: > 100 µM

Q: What about the TGI [5] of the same compound?
A: > 100 µM

Q: What about the TGI [6] of the same compound?
A: > 100 µM

Q: And the TGI [7]?
A: > 100 µM

Q: What about the TGI [8] of the same compound?
A: > 100 µM

Q: What about the TGI [9] of the same compound?
A: > 100 µM

Q: What about the TGI [10] of the same compound?
A: > 100 µM

Q: And the TGI [11]?
A: > 100 µM

Q: And the TGI [12]?
A: > 100 µM

Q: What about the TGI [13] of the same compound?
A: > 100 µM

Q: And the TGI [14]?
A: > 100 µM

Q: And the TGI [15]?
A: > 100 µM

Q: What does the source list for OCCCNc1nc(=S)[nH]c2[nH]ncc12?
A: GI50 [1]: 30.7 µM; TGI [1]: 85.1 µM; GI50 [4]: 44.3 µM; TGI [4]: > 100 µM; GI50 [8]: 68 µM; TGI [8]: > 100 µM; GI50 [11]: 25.4 µM; TGI [11]: 84.5 µM; GI50 [14]: 29.9 µM; TGI [14]: > 100 µM

Q: For CCOC(=O)NC(=O)c1cn(CCNCCO)c(=O)[nH]c1=O, which TGI [2] is on record?
A: > 100 µM

Q: What about the TGI [3] of the same compound?
A: > 100 µM

Q: And the TGI [5]?
A: > 100 µM

Q: What about the TGI [7] of the same compound?
A: > 100 µM

Q: And the TGI [9]?
A: > 100 µM

Q: What about the TGI [11] of the same compound?
A: > 100 µM

Q: And the TGI [14]?
A: > 100 µM

Q: And the TGI [15]?
A: > 100 µM

Q: How did the TGI [1] turn out when CCN(CCO)C(=O)C1(c2ccccc2)CCCCC1 was run?
A: > 10 µM

Q: What about the TGI [4] of the same compound?
A: > 10 µM

Q: And the TGI [11]?
A: > 10 µM

Q: What about the TGI [14] of the same compound?
A: > 10 µM

Q: COc1ccc(CC2CCc3nc(N)nc(N)c3C2)cc1OC (stereo not drawn) was tested. Which TGI [1] did it give?
A: > 100 µM

Q: And the TGI [4]?
A: 0.81 µM

Q: And the TGI [8]?
A: > 54.4 µM

Q: And the TGI [11]?
A: 21.1 µM

Q: What about the TGI [13] of the same compound?
A: > 44 µM

Q: What about the TGI [14] of the same compound?
A: > 64 µM
